Source: ChEMBL document CHEMBL2016462, “Inhibitors of Ketohexokinase: Discovery of Pyrimidinopyrimidines with Specific Substitution that Complements the ATP-Binding Site” (ACS Med Chem Lett, 2011)

Legend:
Ketohexokinase [1] = target: T1, Ketohexokinase (Homo sapiens, UniProt P50053); assay: Inhibition of human ketohexokinase isoform C expressed in Escherichia coli BL21 (DE3) cells using D-fructose as substrate after 12 to 15 mins by fluorescence polarization assay
T1 sequence (P50053 whole entry): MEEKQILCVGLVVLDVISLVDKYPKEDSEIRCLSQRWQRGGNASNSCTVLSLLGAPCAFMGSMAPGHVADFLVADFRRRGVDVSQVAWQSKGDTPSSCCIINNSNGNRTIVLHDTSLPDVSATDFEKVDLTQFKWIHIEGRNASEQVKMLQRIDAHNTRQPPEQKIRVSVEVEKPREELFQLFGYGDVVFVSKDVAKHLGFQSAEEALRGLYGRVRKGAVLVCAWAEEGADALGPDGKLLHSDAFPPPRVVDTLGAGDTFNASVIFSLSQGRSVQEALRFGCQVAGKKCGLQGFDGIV

Ketohexokinase [2] = target: T1, Ketohexokinase; assay: Inhibition of ketokinase isoform C in human HepG2 cells assessed as levels of fructose-1-phosphate preincubated for 30 mins followed by substrate addition measured after 3 hrs by LC-MS analysis; format: cell-based

SMILES | IC50 (Ketohexokinase [1]) [nM] | IC50 (Ketohexokinase [2]) [nM]
CCSc1ccccc1Nc1nc(N2CCNCC2)nc2c(NCC3CC3)ncnc12 | > 9000 | 
CSc1ccccc1Nc1nc(N2CCNCC2)nc2c(NCc3ccccn3)ncnc12 | 9.8 | 270
CSc1ccccc1Nc1nc(N2CCNCC2)nc2c(NCc3nccs3)ncnc12 | 16 | 270
CC(C)c1ccccc1Nc1nc(N2CCNCC2)nc2c(NCC3CC3)ncnc12 | 5000 | 
CSc1ccccc1Nc1nc(N2CCNCC2)nc2c(N)ncnc12 | 7.1 | 78
CNCCN(C)c1nc(Nc2ccccc2SC)c2ncnc(NCC3CC3)c2n1 | 130 | 
CSc1ccccc1Nc1nc(N2CCNCC2)nc2c(NCC3CCC3)ncnc12 | 18 | 
CSc1ccccc1Nc1nc(N2CCNCC2)nc2c(NCCC3CC3)ncnc12 | 50 | 
Cc1ccccc1Nc1nc(N2CCNCC2)nc2c(NC3CCCCC3)ncnc12 | 2300 | 
CSc1ccccc1Nc1nc(N2CCC[C@@H](N)C2)nc2c(NCC3CC3)ncnc12 | 18 | 
c1nc(NCC2CC2)c2nc(N3CCNCC3)nc(NC3CC3)c2n1 | > 9000 | 
c1ccc(Nc2nc(N3CCNCC3)nc3c(NCC4CC4)ncnc23)cc1 | 3200 | 
Cc1ccccc1Nc1nc(N2CCN(C)CC2)nc2c(NCC3CC3)ncnc12 | 1500 | 
CSc1ccccc1Nc1nc(N2CCC(CN)CC2)nc2c(NCC3CC3)ncnc12 | 10 | 
Cc1ccccc1Nc1nc(N2CCOCC2)nc2c(NCC3CC3)ncnc12 | > 7000 | 
CCc1ccccc1Nc1nc(N2CCNCC2)nc2c(NCC3CC3)ncnc12 | 130 | 
CS(=O)(=O)c1ccccc1Nc1nc(N2CCNCC2)nc2c(NCC3CC3)ncnc12 | > 9000 | 

Next, values leading:

IC50 (Ketohexokinase [1]) [nM] | IC50 (Ketohexokinase [2]) [nM] | SMILES
1700 |  | CCN(CC)c1ncnc2c(Nc3ccccc3C)nc(N3CCNCC3)nc12
400 |  | CCCNc1ncnc2c(Nc3ccccc3C)nc(N3CCNCC3)nc12
300 |  | C#CCNc1ncnc2c(Nc3ccccc3C)nc(N3CCNCC3)nc12
400 |  | CNc1ncnc2c(Nc3ccccc3C)nc(N3CCNCC3)nc12
 | 2400 | Cc1ccccc1Nc1nc(N2CCNCC2)nc2c(NCC3CC3)ncnc12
7 | 140 | COCCNc1ncnc2c(Nc3ccccc3SC)nc(N3CCNCC3)nc12
400 |  | Cc1ccccc1Nc1nc(N2CCNCC2)nc2c(NCc3ccccc3)ncnc12
